# Tested on: Corn leaf discs (variety Multitop)
# Assay: Dark induced senescence of corn leaf
# Assay type: in vivo
# Settings: Zea mays, foliar, 192 h; corn leaf discs in the dark, 23° C., 75% humidity, 8 days; 100 μM-0.0001 μM, 0.5% DMSO; image analysis; read-out: IC50 (concentration at which 50% senescence was achieved)
# Experimental: Corn plants of variety Multitop were grown in a greenhouse with relative 75% humidity and at 23-25° C. for 6 weeks. 1.4 cm diameter leaf discs were placed into 24-well plates containing test compounds in a concentration gradient (100 μM-0.0001 μM) at a final concentration of 0.5% DMSO. Each concentration was tested in 12 replicates. Plates were sealed with seal foil. The foil was pierced to provide gas exchange in each well. The plates were placed into the completely dark climatic chamber. Plates were incubated in the chamber with 75% humidity and at 23° C. for 8 days. On days 0, 5, 6, 7 and 8 photographs were taken of each plate, and image analysis conducted with a macro developed using the ImageJ software. The image analysis was used to determine the concentration at which 50% senescence was achieved (IC50), see Table 3. The lower the value, the higher senescence induction potency.
row,IC50 [µM],SMILES
1,< 3,"CCOC(=O)/C(=C/OC1C=C(C)C(=O)O1)N1CCc2cc(Br)ccc21 (stereo not shown) [Compound I-72-Z, ethyl (Z)-2-(5-bromoindolin-1-yl)-3-[(4-methyl-5-oxo-2H-furan-2-yl)oxy]prop-2-enoate]"
2,< 3,"CCOC(=O)/C(=C/OC1OC(=O)C(C)=C1C)n1c(=O)oc2ccccc21 (stereo not shown) [Compound I-69-Z, ethyl (Z)-3-[(3,4-dimethyl-5-oxo-2H-furan-2-yl)oxy]-2-(2-oxo-1,3-benzoxazol-3-yl)prop-2-enoate]"
3,< 3,"CNC(=O)/C(=C/OC1C=C(C)C(=O)O1)n1cc(C#N)c2ccccc21 (stereo not shown) [Compound I-82-Z, (Z)-2-(3-cyanoindol-1-yl)-N-methyl-3-[(4-methyl-5-oxo-2H-furan-2-yl)oxy]prop-2-enamide]"
4,< 3,"CCOC(=O)/C(=C/OC1OC(=O)C(C)=C1C)N1C(=O)C2(CC2)c2ccccc21 (stereo not shown) [Compound I-67-Z, ethyl (Z)-3-[(3,4-dimethyl-5-oxo-2H-furan-2-yl)oxy]-2-(2′-oxospiro[cyclopropane-1,3′-indoline]-1′-yl)prop-2-enoate]"
5,< 3,"CCOC(=O)/C(=C/OC1C=C(C)C(=O)O1)n1nc(C)c(C)c1C (stereo not shown) [Compound I-80-Z, ethyl (Z)-3-[(4-methyl-5-oxo-2H-furan-2-yl)oxy]-2-(3,4,5-trimethylpyrazol-1-yl)prop-2-enoate]"
6,< 3,"CCOC(=O)/C(=C/OC1C=C(C)C(=O)O1)n1c(=O)oc2ccccc21 (stereo not shown) [Compound I-68-Z, ethyl (Z)-3-[(4-methyl-5-oxo-2H-furan-2-yl)oxy]-2-(2-oxo-1,3-benzoxazol-3-yl)prop-2-enoate]"
7,< 3,"CCOC(=O)/C(=C/OC1C=C(C)C(=O)O1)N1C(=O)C2(CC2)c2ccccc21 (stereo not shown) [Compound I-66-Z, ethyl (Z)-3-[(4-methyl-5-oxo-2H-furan-2-yl)oxy]-2-(2′-oxospiro[cyclopropane-1,3′-indoline]-1′-yl)prop-2-enoate]"
8,< 3,"CC1=CC(O/C=C(/C(=O)N(C)C)n2cc(C#N)c3ccccc32)OC1=O (stereo not shown) [Compound I-86-Z, (Z)-2-(3-cyanoindol-1-yl)-N,N-dimethyl-3-[(4-methyl-5-oxo-2H-furan-2-yl)oxy]prop-2-enamide]"
9,< 3,"CNC(=O)/C(=C/OC1OC(=O)C(C)=C1C)n1cc(C#N)c2ccccc21 (stereo not shown) [Compound I-83-Z, (Z)-2-(3-cyanoindol-1-yl)-3-[(3,4-dimethyl-5-oxo-2H-furan-2-yl)oxy]-N-methyl-prop-2-enamide]"

# Continued, molecule first:
row,SMILES,IC50 [µM]
1,"CCOC(=O)/C(=C/OC1C=C(C)C(=O)O1)n1cnc2ccccc21 (stereo not shown) [Compound I-56-Z, ethyl (Z)-2-(benzimidazol-1-yl)-3-[(4-methyl-5-oxo-2H-furan-2-yl)oxy]prop-2-enoate]",< 3
2,"CCOC(=O)/C(=C/OC1C=C(C)C(=O)O1)n1cc(C)c2ccccc21 (stereo not shown) [Compound I-27-Z, ethyl (Z)-2-(3-methylindol-1-yl)-3-[(4-methyl-5-oxo-2H-furan-2-yl)oxy]prop-2-enoate]",< 3
3,"CCOC(=O)/C(=C/OC1C=C(C)C(=O)O1)n1c(=O)sc2ccccc21 (stereo not shown) [Compound I-64-Z, ethyl (Z)-3-[(4-methyl-5-oxo-2H-furan-2-yl)oxy]-2-(2-oxo-1,3-benzothiazol-3-yl)prop-2-enoate]",< 3
4,"CC1=CC(O/C=C(/C(=O)N(C)C)n2nnc3ccccc32)OC1=O (stereo not shown) [Compound I-34-Z, (Z)-2-(benzotriazol-1-yl)-N,N-dimethyl-3-[(4-methyl-5-oxo-2H-furan-2-yl)oxy]prop-2-enamide]",< 3
5,"CCOC(=O)/C(=C/OC1C=C(C)C(=O)O1)n1ccc2cc(-c3ccccc3)ccc21 (stereo not shown) [Compound I-5-Z, ethyl (Z)-3-[(4-methyl-5-oxo-2H-furan-2-yl)oxy]-2-(5-phenylindol-1-yl)prop-2-enoate]",< 3
6,"CCOC(=O)/C(=C/OC1C=C(C)C(=O)O1)n1cc(C#N)c2ccccc21 (stereo not shown) [Compound I-25-Z, ethyl (Z)-2-(3-cyanoindol-1-yl)-3-[(4-methyl-5-oxo-2H-furan-2-yl)oxy]prop-2-enoate]",< 3
7,"CCOC(=O)/C(=C/OC1OC(=O)C(C)=C1C)n1cc(C)c2ccccc21 (stereo not shown) [Compound I-28-Z, ethyl (Z)-3-[(3,4-dimethyl-5-oxo-2H-furan-2-yl)oxy]-2-(3-methylindol-1-yl)prop-2-enoate]",< 3
8,"CCOC(=O)/C(=C/OC1OC(=O)C(C)=C1C)n1ccc2cc(C(F)(F)F)ccc21 (stereo not shown) [Compound I-8-Z, ethyl (Z)-3-[(3,4-dimethyl-5-oxo-2H-furan-2-yl)oxy]-2-[5-(trifluoromethyl)indol-1-yl]prop-2-enoate]",< 3
9,"CNC(=O)/C(=C\OC1C=C(C)C(=O)O1)n1nnc2ccccc21 (stereo not shown) [Compound I-33-E, (E)-2-(benzotriazol-1-yl)-N-methyl-3-[(4-methyl-5-oxo-2H-furan-2-yl)oxy]prop-2-enamide]",< 3
10,"CCOC(=O)/C(=C/OC1C=C(C)C(=O)O1)n1c(C)c(C)c2ccccc21 (stereo not shown) [Compound I-29-Z, ethyl (Z)-2-(2,3-dimethylindol-1-yl)-3-[(4-methyl-5-oxo-2H-furan-2-yl)oxy]prop-2-enoate]",< 3
11,"CCOC(=O)/C(=C/OC1OC(=O)C(C)=C1C)n1cnc2c(N(C)C)nc(F)nc21 (stereo not shown) [Compound I-61-Z, ethyl (Z)-2-[6-(dimethylamino)-2-fluoro-purin-9-yl]-3-[(3,4-dimethyl-5-oxo-2H-furan-2-yl)oxy]prop-2-enoate]",< 3
12,"CNC(=O)/C(=C/OC1OC(=O)C(C)=C1C)n1nnc2ccccc21 (stereo not shown) [Compound I-37-Z, (Z)-2-(benzotriazol-1-yl)-3-[(3,4-dimethyl-5-oxo-2H-furan-2-yl)oxy]-N-methyl-prop-2-enamide]",< 3
13,"CCOC(=O)/C(=C/OC1C=C(C)C(=O)O1)n1ccc2ccccc21 (stereo not shown) [Compound I-1-Z, ethyl (Z)-2-indol-1-yl-3-[(4-methyl-5-oxo-2H-furan-2-yl)oxy]prop-2-enoate]",< 3
14,"CCOC(=O)/C(=C/OC1C=C(C)C(=O)O1)n1cnc2c(N(C)C)nc(F)nc21 (stereo not shown) [Compound I-60-Z, ethyl (Z)-2-[6-(dimethylamino)-2-fluoro-purin-9-yl]-3-[(4-methyl-5-oxo-2H-furan-2-yl)oxy]prop-2-enoate]",< 3
15,"CCOC(=O)/C(=C/OC1OC(=O)C(C)=C1C)n1cnc2ccccc21 (stereo not shown) [Compound I-57-Z, ethyl (Z)-2-(benzimidazol-1-yl)-3-[(3,4-dimethyl-5-oxo-2H-furan-2-yl)oxy]prop-2-enoate]",< 3
16,"CC1=C(C)C(O/C=C(\C#N)n2ncc3ccccc32)OC1=O (stereo not shown) [Compound I-47-E, (E)-3-[(3,4-dimethyl-5-oxo-2H-furan-2-yl)oxy]-2-indazol-1-yl-prop-2-enenitrile]",< 3
17,"CCOC(=O)/C(=C/OC1C=C(C)C(=O)O1)n1ccc2cc(F)ccc21 (stereo not shown) [Compound I-3-Z, ethyl (Z)-2-(5-fluoroindol-1-yl)-3-[(4-methyl-5-oxo-2H-furan-2-yl)oxy]prop-2-enoate]",< 3
18,"CCOC(=O)/C(=C/OC1OC(=O)C(C)=C1C)n1c(C)c(C)c2ccccc21 (stereo not shown) [Compound I-30-Z, ethyl (Z)-2-(2,3-dimethylindol-1-yl)-3-[(3,4-dimethyl-5-oxo-2H-furan-2-yl)oxy]prop-2-enoate]",< 3
19,"CCOC(=O)/C(=C/OC1OC(=O)C(C)=C1C)n1ccc2ccccc21 (stereo not shown) [Compound I-7-Z, ethyl (Z)-3-[(3,4-dimethyl-5-oxo-2H-furan-2-yl)oxy]-2-indol-1-yl-prop-2-enoate]",< 3
